Two compounds from patent US20200157135A1, “SIDE-CHAIN MODIFIED ERGOSTEROL AND STIGMASTEROL DERIVATIVES AS LIVER X RECEPTOR MODULATORS” (Ospedale San Raffaele srl, priority 2017, published 2020) can be followed below.

One assay addresses T1, hLXRβ (Homo sapiens, UniProt P55055).
T1 sequence (P55055 222-460 limits assumed): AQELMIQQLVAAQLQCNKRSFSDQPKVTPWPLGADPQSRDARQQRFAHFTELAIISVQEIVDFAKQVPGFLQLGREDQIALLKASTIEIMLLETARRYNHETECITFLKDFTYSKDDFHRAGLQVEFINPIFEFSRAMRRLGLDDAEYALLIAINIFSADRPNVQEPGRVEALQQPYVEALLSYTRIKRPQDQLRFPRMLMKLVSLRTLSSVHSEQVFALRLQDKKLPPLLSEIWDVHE
As to the kind of experiment: luciferase assay with GAL-4 chimeric hLXRβ receptor in human embryonic kidney 293 cells. It is filed as cell-based. Here is the method: (§1) All the synthesized compounds were first tested for their ability to activate LXRs by using luciferase assays with GAL-4 chimeric receptors. These were performed by co-transfecting plasmids encoding hLXRα- and β-binding domains fused to GAL-4, with the respective responsive element conjugated with the luciferase reporter gene into the human embryonic kidney 293 cells.
(§2) Cell Culture and Co-transfection Assays. Human embryonic Kidney 293 cells (American Type Culture Collection) were cultured in Dulbecco's Modified Eagle's medium containing 10% of fetal bovine serum at 37° C. in humidified atmosphere of 5% CO2. HEK293 cells (4×10^4 cells per well) were transiently transfected in 48 well plate with the reporter plasmids pMH100X4-TK-luc (100 ng/well), Renilla (22 ng/well) together with 100 ng/well of pCMX-Gal4-RXR, pCMX-Gal4-PPAR-γ, pCMX-Gal4-PXR, pFA-CMV-FXR pCMX-Gal4-LXR-α or pCMX-Gal4-LXR-β plasmids using X-tremeGENE 9 DNA Transfection Reagent (Roche). Six hours after transfection, the cells were treated with the appropriate compound for 24 hours. Luciferase activities were analyzed by luciferase Dual Reporter Assay Systems (Promega) according to the manufacturer's protocol. GAL4-LXRs, GAL4-PPAR-γ, GAL4-RXR and TK-MHC100-luc plasmids were described in Villablanca et al.49 GAL4-PXR was a kind gift of Dr. Enrique Sainz (The Scripps Research Institute, La Jolla, USA). GAL4-FXR was a kind gift of Dr. Daniel Merk (Goethe-University Frankfurt am Main). The results obtained by luciferase assays and reported in Table 1 are from three to five independent experiments.
(§3) Statistical analysis. Data are expressed as mean±SEM and were analyzed for significance by ANOVA with Dunnet's multiple comparison tests. The analysis was performed with Prism software. Data in Table 1 are expressed as EC50±SD. In particular, the standard deviations were obtained by calculating the mean of the EC50 of each experiment (three to five independent experiments). The efficacy (%) of the compounds was calculated as the percentage of the compound effect, in terms of LXRα or β activation, versus 8 μM of 22R—HC±SD. The analyses were performed with Prism software.

For the next assay, the system named is SCD1. As to the kind of experiment: qPCR of SCD1 expression in PMA-differentiated U937 cells. The assay is classed as cell-based, human. The note with it: U937 differentiated with PMA 72 h; 10 μM, 6 hours. Here is the method: (§4) U937 cells differentiated with PMA for 72 hours were treated with T0901317 (10 μM), 22R—HC (3) or with the tested compound (10 μM). […] (n=3/group). *p<0.05, **p<0.01, ***p<0.001.
(§5) LXR agonists induce the expression of target genes, which are involved in cholesterol homeostasis, particularly in the reverse cholesterol transport pathway.43 Indeed, LXR agonists induce the expression of ABCA1 both in macrophages and in many tissues of the periphery such as the intestine.44 Moreover, ABCA1 regulates cholesterol efflux to APOAI acceptors.45 In the liver, LXR activation promotes the biosynthesis of fatty acids, a process also termed as de novo lipogenesis by inducing the expression of the master regulator of hepatic lipogenesis sterol-regulatory element-binding protein 1C (SREBP-1c), as well as several downstream genes in the SREBP-1c pathway, including steroyl CoA desaturase 1 (SCD1) and fatty acid synthase (FASN).43 Therefore, it was investigated, by quantitative PCR (qPCR), the expression of ABCA1, SREBP1c, FASN, and SCD1, by using RNA from monocytic U937 cells (FIG. 3) and from hepatic HepG2 cells (FIG. 4) stimulated with our compounds, the non-steroidal agonist T0901317 or the endogenous ligand 22R—HC (3) as positive controls. […] Then, the induction of genes involved in the lipogenesis using the hepatic cell line HepG2. 43,22 was evaluated. […] Over the time, indeed, substantial efforts have been dedicated to the identification of LXR ligands able to turning on ABC transporter genes, without affecting lipogenic genes levels. This task is still one of the major challenge to the discovery of a clinically useful LXR modulator for atherosclerosis.
(§6) Quantitative Real-Time-PCR. U937 cell line was differentiated in foam macrophages with phorbol 12-myristate 13-acetate (PMA) 10 ng/ml (Sigma) for 72 hours at 37° C. in […] at the concentration of 3×10^6 cells in 10 ml RPMI 10% FBS. At day 3 nuclear receptor ligands were added for 6 hours. HepG2 cells were treated with the ligands as described by Quinet et al.22 Total RNA was purified by TRIZOL (Invitrogen, Carlsbad, Calif., USA). Reverse transcription was performed incubating 2 μg of total RNA 1 hour at 42° C. with MLV-reverse transcriptase (Promega). Quantitative PCR was performed using Sybr Green Master Mix (Applied Biosystems) and real-time PCR (Viia 7 Real Time PCR System, Applied Biosystems). All PCR reactions were done in triplicate. The comparative Ct method was used to quantify transcripts that were normalized for human GAPDH. the following primer pairs were used: […]
For orientation: In qPCR the cycle at which signal appears reflects the starting amount.

In the next assay the test system is FASN. As to the kind of experiment: qPCR of FASN expression in PMA-differentiated U937 cells. The assay is classed as cell-based, human. The conditions noted are these: U937 differentiated with PMA 72 h; 10 μM, 6 hours. Here is the method:
as §4
LXR agonists induce the expression of target genes, which are involved in cholesterol homeostasis, particularly in the reverse cholesterol transport pathway.43 Indeed, LXR agonists induce the expression of ABCA1 both in macrophages and in many tissues of the periphery such as the intestine.44 Moreover, ABCA1 regulates cholesterol efflux to APOAI acceptors.45 In the liver, LXR activation promotes the biosynthesis of fatty acids, a process also termed as de novo lipogenesis by inducing the expression of the master regulator of hepatic lipogenesis sterol-regulatory element-binding protein 1C (SREBP-1c), as well as several downstream genes in the SREBP-1c pathway, including steroyl CoA desaturase 1 (SCD1) and fatty acid synthase (FASN).43 Therefore, it was investigated, by quantitative PCR (qPCR), the expression of ABCA1, SREBP1c, FASN, and SCD1, by using RNA from monocytic U937 cells (FIG. 3) and from hepatic HepG2 cells (FIG. 4) stimulated with our compounds, the non-steroidal agonist T0901317 or the endogenous ligand 22R—HC (3) as positive controls. […] Then, the induction of genes involved in the lipogenesis using the hepatic cell line HepG2. 43,22 was evaluated. […]
Quantitative Real-Time-PCR. […]

In a further assay the target is T2, hLXRα (Homo sapiens, UniProt Q13133).
T2 sequence (Q13133 209-447 limits assumed): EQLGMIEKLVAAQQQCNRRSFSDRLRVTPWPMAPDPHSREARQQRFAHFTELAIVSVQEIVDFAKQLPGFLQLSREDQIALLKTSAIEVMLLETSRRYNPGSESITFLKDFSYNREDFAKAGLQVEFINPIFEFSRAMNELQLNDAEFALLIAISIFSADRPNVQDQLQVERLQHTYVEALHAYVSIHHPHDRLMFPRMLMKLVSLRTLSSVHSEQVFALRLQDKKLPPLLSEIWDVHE
As to the kind of experiment: luciferase assay with GAL-4 chimeric hLXRα receptor in human embryonic kidney 293 cells. The assay is classed as cell-based. Here is the method:
as §1, §2, §3

The next assay deals with SREBP1c. Put plainly: qPCR of SREBP1c expression in PMA-differentiated U937 cells. It is filed as cell-based, human. The conditions noted are these: U937 differentiated with PMA 72 h; 10 μM, 6 hours. Here is the method: as §4, §5, §6
A further assay has as its system hFXR. Put plainly: luciferase assay GAL4-hFXR in human embryonic kidney 293 cells. The note with it: compounds at 10 μM. The assay is classed as cell-based. Here is the method: Human embryonic kidney 293 cells were co-transfected with GAL4-hRXR (A), GAL4-hPPARγ (B), GAL4-hPXR (C) and GAL4-hFXR (D) expression plasmids together with GAL4 responsive element pMHC100X4-TK-luc and Renilla plasmids. Cells were incubated with vehicle (DMSO), PFMs at the concentration of 10 μM, and the nuclear receptor specific ligands 9cis retinoic acid (100 nM) (A), Rosiglitazone (RSG 100 nM) (B), T0901317 (100 nM) (C) and GW4064 (100 nM) (D) for six hours. The values represent mean±S.D. RLA, relative luciferase activity.
The selectivity of our compounds within the nuclear receptor superfamily was also evaluated by luciferase assays using GAL4-RXR, -PPARγ, -PXR and -FXR plasmids.
Cell Culture and Co-transfection Assays. Human embryonic Kidney 293 cells (American Type Culture Collection) were cultured in Dulbecco's Modified Eagle's medium containing 10% of fetal bovine serum at 37° C. in humidified atmosphere of 5% CO2. […] Luciferase activities were analyzed by luciferase Dual Reporter Assay Systems (Promega) according to the manufacturer's protocol. […]

The next assay has as its system ABCA1. Put plainly: qPCR of ABCA1 expression in PMA-differentiated U937 cells. The assay is classed as cell-based, human. The note with it: U937 differentiated with PMA 72 h; 10 μM, 6 hours. Here is the method: as §4, §5, §6

Broadly, the EC50 is the concentration that produces a half-maximal response.

For `CC(C)CC[C@@H](O)[C@@H](C)[C@H]1CC[C@H]2[C@@H]3CC=C4C[C@@H](O)CC[C@]4(C)[C@H]3CC[C@]12C` [22R-HC (3), 22(R)-hydroxycholesterol, reference compound], the EC50 amounted to 4.75 ± 0.12 µM at hLXRβ (GAL4-hLXRβ luciferase, HEK293, dose-response 32-1 μM, mean of three-five independent experiments, read-out: LXRβ EC50 (μM) ± SD) and 6.71 ± 0.71 µM at hLXRα (GAL4-hLXRα luciferase, HEK293, dose-response 32-1 μM, mean of three-five independent experiments, read-out: LXRα EC50 (μM) ± SD). The Emax worked out at 100% on hLXRβ (HEK293, 24 h, read-out: LXRβ Efficacy (%) ± SD, % of compound effect versus 8 μM of 22R-HC) and 100% at hLXRα (HEK293, 24 h, read-out: LXRα Efficacy (%) ± SD). In addition, in the assay with SCD1, the “SCD1 expression” value is “did not induce up-regulation of FASN and SCD1 transcripts”. The “FASN mRNA levels” value in the assay with FASN was “did not induce up-regulation of FASN and SCD1 transcripts”.

As to `CC[C@H](C[C@@H](O)[C@@H](C)[C@H]1CC[C@H]2[C@@H]3CC=C4C[C@@H](O)CC[C@]4(C)[C@H]3CC[C@]12C)C(C)C` [Compound 20, (22R)-3β-stigmast-5-ene-3,22-diol], the SREBP-1c up-regulation result in the assay with SREBP1c is “poor activators of SREBP1c and SCD1”. For the same compound, the “SCD1 expression” value in the assay with SCD1 is “poor activators of SREBP1c and SCD1”. In the assay with hFXR, the FXR activation result is “strong FXR activation”. In addition, the ABCA1 expression entry in the assay on ABCA1 is listed as “strong induction of ABCA1 expression”.
